Assay results as given in patent publication US9926284B2, “Substituted N-(1,2,4-triazol-3-yl)Arylcarboxamide compounds and their use as herbicides” (BASF SE, priority 2013, dated 2018).
Marks after values point to notes of the source that are not given here.

What was measured:
Format in all cases: in vivo
Abutilon theophrasti [1] = experiment: greenhouse pre-emergence treatment, herbicidal activity; settings: pre-emergence (values labeled *), 1000 g/ha, scale 0 to 100
Description: (§1) The seeds of the test plants were sown separately for each species. For the pre-emergence treatment, the active ingredients, which had been suspended or emulsified in water, were applied directly after sowing by means of finely distributing nozzles. The containers were irrigated gently to promote germination and growth and subsequently covered with transparent plastic hoods until the plants had rooted. This cover caused uniform germination of the test plants, unless this has been impaired by the active ingredients. Depending on the species, the plants were kept at 10-25° C. or 20-35° C. The test period extended over 2 to 4 weeks. During this time, the plants were tended, and their response to the individual treatments was evaluated. Evaluation was carried out using a scale from 0 to 100. 100 means no emergence of the plants, or complete destruction of at least the aerial moieties, and 0 means no damage, or normal course of growth. A good herbicidal activity is given at values of at least 70 and a very good herbicidal activity is given at values of at least 85. The plants used in the greenhouse experiments belonged to the following species: [table]

Echinochloa crus-galli [2] = experiment: as above; settings: pre-emergence (values labeled *), 1000 g/ha, scale 0 to 100
Description: as §1

Setaria faberi = experiment: as above; settings: pre-emergence (values labeled *), 1000 g/ha, scale 0 to 100
Description: as §1

Amaranthus retroflexus [3] = experiment: as above; settings: pre-emergence (values labeled *), 1000 g/ha, scale 0 to 100
Description: as §1

Abutilon theophrasti [4] = experiment: greenhouse post-emergence treatment, herbicidal activity; settings: 1000 g/ha, scale 0 to 100
Description: (§2) The seeds of the test plants were sown separately for each species. For the post-emergence treatment, the test plants were first grown to a height of 3 to 15 cm, depending on the plant habit, and only then treated with the active ingredients which had been suspended or emulsified in water. For this purpose, the test plants were either sown directly and grown in the same containers, or they were first grown separately as seedlings and transplanted into the test containers a few days prior to treatment. Depending on the species, the plants were kept at 10-25° C. or 20-35° C. The test period extended over 2 to 4 weeks. During this time, the plants were tended, and their response to the individual treatments was evaluated. Evaluation was carried out using a scale from 0 to 100. 100 means no emergence of the plants, or complete destruction of at least the aerial moieties, and 0 means no damage, or normal course of growth. A good herbicidal activity is given at values of at least 70 and a very good herbicidal activity is given at values of at least 85. The plants used in the greenhouse experiments belonged to the following species: [table]

Avena fatua = experiment: as above; settings: 1000 g/ha, scale 0 to 100
Description: as §2

Echinochloa crus-galli [5] = experiment: as above; settings: 1000 g/ha, scale 0 to 100
Description: as §2

Setaria viridis = experiment: as above; settings: 1000 g/ha, scale 0 to 100
Description: as §2

Amaranthus retroflexus [6] = experiment: as above; settings: 1000 g/ha, scale 0 to 100
Description: as §2

Agrostis spica-venti = experiment: greenhouse pre-emergence treatment, herbicidal activity; settings: pre-emergence (values labeled *), 1000 g/ha, scale 0 to 100
Description: as §1

Alopecurus agrestis = experiment: greenhouse post-emergence treatment, herbicidal activity; settings: 1000 g/ha, scale 0 to 100
Description: as §2

CCn1cnnc1NC(=O)c1c(F)cc(Cl)c(SC)c1Cl [cpd. 3, 2,4-dichloro-N-(4-ethyl-1,2,4-triazol-3-yl)-6-fluoro-3 methyl-sulfanyl-benzamide]
damage [%] in weed species I (ABUTH) (Abutilon theophrasti [1]): 90% | damage [%] in weed species VI (ECHCG) (Echinochloa crus-galli [2]): 75% | damage [%] in weed species VII (SETFA) (Setaria faberi): 70* % | damage [%] in weed species III (AMARE) (Amaranthus retroflexus [3]): 90% | damage [%] in weed species I (ABUTH) (Abutilon theophrasti [4]): 100% | damage [%] in weed species V (AVEFA) (Avena fatua): 80% | damage [%] in weed species VI (ECHCG) (Echinochloa crus-galli [5]): 98% | damage [%] in weed species VIII (SETVI) (Setaria viridis): 100% | damage [%] in weed species III (AMARE) (Amaranthus retroflexus [6]): 100%

CCn1cnnc1NC(=O)c1c(F)cc(Cl)c(S(C)(=O)=O)c1Cl [cpd. 2, 2,4-dichloro-N-(4-ethyl-1,2,4-triazol-3-yl)-6-fluoro-3-methyl-sulfonyl-benzamide]
damage [%] in weed species IV (APESV) (Agrostis spica-venti): 80* % | damage [%] in weed species VI (ECHCG) (Echinochloa crus-galli [2]): 98% | damage [%] in weed species VII (SETFA) (Setaria faberi): 85* % | damage [%] in weed species III (AMARE) (Amaranthus retroflexus [3]): 95% | damage [%] in weed species I (ABUTH) (Abutilon theophrasti [4]): 100% | damage [%] in weed species V (AVEFA) (Avena fatua): 75% | damage [%] in weed species VI (ECHCG) (Echinochloa crus-galli [5]): 90% | damage [%] in weed species VIII (SETVI) (Setaria viridis): 100% | damage [%] in weed species III (AMARE) (Amaranthus retroflexus [6]): 75%

Cn1cnnc1NC(=O)c1c(F)cc(Cl)c(S(C)(=O)=O)c1Cl [cpd. 5, 2,4-dichloro-6-fluoro-3-methylsulfonyl-N-(4-methyl-1,2,4-triazol-3-yl)benzamide]
damage [%] in weed species IV (APESV) (Agrostis spica-venti): 70* % | damage [%] in weed species I (ABUTH) (Abutilon theophrasti [1]): 80% | damage [%] in weed species VI (ECHCG) (Echinochloa crus-galli [2]): 80% | damage [%] in weed species VII (SETFA) (Setaria faberi): 85* % | damage [%] in weed species III (AMARE) (Amaranthus retroflexus [3]): 85% | damage [%] in weed species II (ALOMY) (Alopecurus agrestis): 85% | damage [%] in weed species I (ABUTH) (Abutilon theophrasti [4]): 98% | damage [%] in weed species VI (ECHCG) (Echinochloa crus-galli [5]): 98% | damage [%] in weed species VIII (SETVI) (Setaria viridis): 95% | damage [%] in weed species III (AMARE) (Amaranthus retroflexus [6]): 90%

CSc1c(Cl)cc(F)c(C(=O)Nc2nncn2C)c1Cl [cpd. 4, 2,4-dichloro-6-fluoro-3-methylsulfanyl-N-(4-methyl-1,2,4-triazol-3-yl)benzamide]
damage [%] in weed species IV (APESV) (Agrostis spica-venti): 70* % | damage [%] in weed species I (ABUTH) (Abutilon theophrasti [1]): 70% | damage [%] in weed species VII (SETFA) (Setaria faberi): 70* % | damage [%] in weed species III (AMARE) (Amaranthus retroflexus [3]): 100, 100* % | damage [%] in weed species II (ALOMY) (Alopecurus agrestis): 90% | damage [%] in weed species I (ABUTH) (Abutilon theophrasti [4]): 100% | damage [%] in weed species V (AVEFA) (Avena fatua): 90% | damage [%] in weed species VI (ECHCG) (Echinochloa crus-galli [5]): 95% | damage [%] in weed species VIII (SETVI) (Setaria viridis): 100% | damage [%] in weed species III (AMARE) (Amaranthus retroflexus [6]): 100, 100* %
